This is an account of results in ChEMBL document CHEMBL6121062, “Discovery, Optimization, and Preclinical Pharmacology of EP652, a METTL3 Inhibitor with Efficacy in Liquid and Solid Tumor Models” (J Med Chem, 2025).

Molecules are shown by their SMILES. Active and inactive are the calls of the source.

One data set deals with Cytochrome P450 3A4 (Homo sapiens, UniProt P08684). Put plainly: Inhibition of CYP3A4 (unknown origin). It counts as ADME.
The nature of data set [1]: Half life in rat liver microsomes. It counts as ADME, Microsome. For orientation: Liver microsomes are vesicles of endoplasmic reticulum, rich in cytochrome P450 enzymes.
Data set [2] can be described thus: Lipophilicity, logD of compound in 1-octanol/PBS at pH 7.4 incubated for 24 hrs by HPLC analysis. The format is physicochemical.
Data set [3] can be described thus: Unbound clearance in Sprague-Dawley rat at 1 mg/kg/day, iv measured for 24 hrs by LC-MS/MS analysis. The format is ADME, organism-based. To be noted: in vivo.
A short description of data set [4]: Unbound AUC in Sprague-Dawley rat at 1 mg/kg/day, iv measured for 24 hrs by LC-MS/MS analysis. The format is ADME, organism-based. Particulars: in vivo.
For the next data set, the system named is HepG2. Kind of data set: Cytotoxicity against human HepG2 cells assessed as cell viability at 50 uM relative to control. It counts as functional. Particulars: read-out: Activity.
The test system of data set [5] is MV4-11. Put plainly: Antiproliferative activity against human MV4-11 cells assessed as inhibition of cell viability incubated for 72 hrs by ATPlite assay. The format is functional, cell-based. To be noted: MV4-11, 72 h. In general terms: Cellular ATP, detected with luciferase, serves as a proxy for viable cell number.
A further data set concerns A549. Put plainly: Antiproliferative activity against human A549 cells assessed as inhibition of cell viability incubated for 72 hrs by ATPlite assay. It counts as functional, cell-based. To be noted: A549, 72 h.
For data set [6], the system named is FaDu. Put plainly: Antiproliferative activity against human FaDu cells assessed as inhibition of cell viability incubated for 72 hrs by ATPlite assay. It counts as functional, cell-based.
The subject of a further data set is NCI-H1650. Put plainly: Growth inhibition of human NCI-H1650 cells spheroid model. The format is functional, cell-based.
The target in data set [7] is T1, METTL3/METTL14 (Homo sapiens) (UniProt Q86U44+Q9HCE5). Put plainly: (§1) Inhibition of METTL3/METTL14-mediated m6A mRNA expression in human Kasumi 1 cells incubated for 24 hrs by LC-MS/MS analysis. The format is cell-based.
The target of data set [8] is T2, METTL3/METTL14 (Homo sapiens, UniProt Q86U44). The description is as §1. It counts as cell-based.
T2 sequence (Q86U44 whole entry): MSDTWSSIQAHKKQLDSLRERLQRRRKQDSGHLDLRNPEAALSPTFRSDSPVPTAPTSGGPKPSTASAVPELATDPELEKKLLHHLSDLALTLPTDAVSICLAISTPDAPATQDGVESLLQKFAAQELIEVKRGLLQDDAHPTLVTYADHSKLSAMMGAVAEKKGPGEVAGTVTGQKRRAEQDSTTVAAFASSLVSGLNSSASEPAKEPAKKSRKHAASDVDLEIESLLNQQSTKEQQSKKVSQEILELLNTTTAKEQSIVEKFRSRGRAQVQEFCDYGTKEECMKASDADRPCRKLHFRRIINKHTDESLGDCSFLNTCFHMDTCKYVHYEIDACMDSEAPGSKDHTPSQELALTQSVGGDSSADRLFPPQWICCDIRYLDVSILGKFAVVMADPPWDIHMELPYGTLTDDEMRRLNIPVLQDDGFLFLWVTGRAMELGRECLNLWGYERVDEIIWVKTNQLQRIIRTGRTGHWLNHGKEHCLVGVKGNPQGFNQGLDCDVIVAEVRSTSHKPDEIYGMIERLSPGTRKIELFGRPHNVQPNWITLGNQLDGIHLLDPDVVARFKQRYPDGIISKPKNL
T2 sequence (Q9HCE5 whole entry, further chain): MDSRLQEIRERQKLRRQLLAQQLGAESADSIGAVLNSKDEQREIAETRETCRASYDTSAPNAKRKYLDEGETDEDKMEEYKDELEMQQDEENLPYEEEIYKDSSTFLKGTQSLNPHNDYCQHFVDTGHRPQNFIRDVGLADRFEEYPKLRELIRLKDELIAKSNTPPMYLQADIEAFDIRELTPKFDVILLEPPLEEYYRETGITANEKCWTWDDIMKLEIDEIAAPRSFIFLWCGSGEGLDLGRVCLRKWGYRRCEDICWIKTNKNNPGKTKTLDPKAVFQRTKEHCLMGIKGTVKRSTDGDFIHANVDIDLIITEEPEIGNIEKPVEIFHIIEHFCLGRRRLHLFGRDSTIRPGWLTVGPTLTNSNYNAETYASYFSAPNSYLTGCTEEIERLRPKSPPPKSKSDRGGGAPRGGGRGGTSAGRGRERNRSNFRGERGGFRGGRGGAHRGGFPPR
Data set [9] addresses T1, METTL3/METTL14 (Homo sapiens). Kind of data set: (§2) Inhibition of METTL3/METTL14-mediated m6A mRNA expression in human SK-OV-3 cells incubated for 24 hrs by LC-MS/MS analysis. It counts as cell-based.
For data set [10], the target named is T2, METTL3/METTL14. The data set is described as §2. It counts as cell-based.
The test system of data set [11] is MV4-11. Put plainly: Induction of apoptosis in human MV4-11 cells incubated for 48 hrs by Caspase-Glo 3/7 assay. The format is functional, cell-based.
Data set [12] relates to Acute myeloid leukemic cell. Put plainly: Antitumor activity against patient-derived human Acute myeloid leukemic cells xenografted in NSG mouse assessed as prolongation of animal survival at 30 mg/kg, ip qd treated for 91 days measured upto 112 days. It counts as functional, organism-based. To be noted: time <= 112.0 day. (In general: In xenograft studies the graft and the host belong to different species.)

Data set [13] deals with MV4-11. Put plainly: Antitumor activity against human MV4-11 cells expressing Luc-mCh-Puro xenografted in NSG mouse assessed as decrease in hCD45+ cells in bone marrow at 30 mg/kg, ip qd measured after 28 days by flow cytometry. It counts as functional, organism-based. Particulars: time 28.0 day.
The subject of data set [14] is MV4-11. Kind of data set: Antitumor activity against human MV4-11 cells expressing Luc-mCh-Puro xenografted in NSG mouse assessed as decrease in hCD45+ cells in blood at 30 mg/kg, ip qd measured after 28 days by flow cytometry. It counts as functional, organism-based. Particulars: time 28.0 day.
Data set [15] relates to MV4-11. Kind of data set: Antitumor activity against human MV4-11 cells expressing Luc-mCh-Puro xenografted in NSG mouse administered intraperitoneally once daily measured after 19 days by bioluminescence imaging analysis. To be noted: dose 10-30 mg/kg, route ip, time 19.0 day.
In data set [16] the test system is FaDu. Put plainly: Antitumor activity against human FaDu cells xenografted in NSG mouse assessed as tumor growth inhibition at 30 mg/kg, ip qd treated for 20 days. The format is functional, organism-based. To be noted: time 20.0 day.
Data set [17] can be described thus: Toxicity in NSG mouse xenografted with human A549 cells assessed as body weight gain at 30 mg/kg, ip qd treated for 50 days. It counts as organism-based. To be noted: in vivo, 1200 h, time 50 day.
Data set [18] can be described thus: Toxicity in NSG mouse xenografted with human A549 cells assessed as macroscopic adverse events at 30 mg/kg, ip qd treated for 50 days. The format is organism-based. To be noted: in vivo, 1200 h, time 50 day.

Sequence of Cytochrome P450 3A4 (P08684 whole entry): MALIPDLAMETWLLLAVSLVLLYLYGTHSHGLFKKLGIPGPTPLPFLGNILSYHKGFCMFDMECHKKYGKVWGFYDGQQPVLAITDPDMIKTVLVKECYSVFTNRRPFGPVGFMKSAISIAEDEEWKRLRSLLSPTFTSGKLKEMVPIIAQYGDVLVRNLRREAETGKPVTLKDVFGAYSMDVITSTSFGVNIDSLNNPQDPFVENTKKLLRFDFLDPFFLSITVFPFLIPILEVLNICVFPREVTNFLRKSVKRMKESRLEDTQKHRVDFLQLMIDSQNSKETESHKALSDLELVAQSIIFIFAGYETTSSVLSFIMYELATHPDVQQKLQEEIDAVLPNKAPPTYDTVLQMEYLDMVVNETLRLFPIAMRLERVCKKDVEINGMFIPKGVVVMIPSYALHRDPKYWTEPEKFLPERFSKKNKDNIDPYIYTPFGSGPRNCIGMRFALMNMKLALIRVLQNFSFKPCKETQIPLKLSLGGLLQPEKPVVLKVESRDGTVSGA

In general, IC50 refers to the concentration that inhibits the measured activity by half. For orientation: half-life means the time needed for the level to fall by half in the phase considered. The low end stands for fast loss, the high end for slow loss. For orientation: logD means the decadic logarithm of the distribution of all forms, ionised or not, between an organic phase and buffer at a given pH. Read a high logD as a more lipophilic compound. Consider `C[C@@H](n1cc(-c2cncc(N(C)C)c2)nn1)n1ccc(N2CCC[C@@H](NCC3CC3)C2)cc1=O`, for which the half-maximal inhibitory concentration (IC50) at Cytochrome P450 3A4 was 900 nM; with MV4-11 [5], 234 nM; in the data set with A549 it was 169 nM; with FaDu [6], 50 nM; with NCI-H1650, 99 nM; against METTL3/METTL14 [8] it was 5 nM. The IC50 on METTL3/METTL14 [10] was 3 nM. Moreover, in [1], the half-life stood at 1.52 h. Further, the pH-dependent lipophilicity (logD) at 24 h in data set [2] stood at 1.16. The compound also registered a CL free in [3] of 358 mL/min/kg. Moreover, the fAUC in data set [4] was determined as 5.1 µM·min. Also, in the data set on HepG2, the viability at 50 µM came to 90.3%. The inhibition entry in data set [7] and in data set [9] was “Dose-dependent-effect” throughout. Further, the result (in the data set on MV4-11 [11]; in data set [12]; with MV4-11 [13]; in the data set with MV4-11 [14]) was Active. Besides, the results for the Activity entry (in the data set with MV4-11 [15]; in data set [17]; in data set [18]) were “Dose-dependent-effect”, “Non-toxic” and “Non-toxic”, respectively. In the data set with FaDu [16], the inhibition entry was “Active”.
